The conditions of series [1]: rat, in vivo.
Series [2] can be described thus: in vivo. As to conditions: rat, inhaled or intranasal, 6 mg/kg.

Take `CC[C@H](C)[C@H](NC(=O)[C@H](C)NC(=O)[C@H](CC(N)=O)NC(=O)CNC(=O)[C@H](CC(C)C)NC(=O)[C@H](CC(N)=O)NC(=O)[C@@H](NC(=O)CNC(=O)[C@@H](NC(=O)[C@H](CC(=O)O)NC(=O)[C@H](CC(C)C)NC(=O)[C@H](CCCNC(=N)N)NC(=O)[C@H](CCC(=O)O)NC(=O)[C@H](CC(C)C)NC(=O)[C@H](CO)NC(=O)[C@@H](NC(=O)[C@@H]1CCCN1C(=O)[C@@H]1CCCN1C(C)=O)[C@@H](C)CC)C(C)C)[C@@H](C)O)C(=O)N[C@@H](C)C(=O)N[C@@H](CCCCN)C(=O)N[C@@H](CC(C)C)C(=O)N[C@@H](CCC(=O)O)C(=O)N[C@@H](CC(=O)O)C(=O)N[C@@H](C)C(=O)N[C@@H](CCCCN)C(=O)N[C@@H](CCC(=O)O)C(=O)N[C@@H](CC(C)C)C(=O)N[C@@H](CC(C)C)C(=O)N[C@@H](CCC(=O)O)C(=O)N[C@@H](CO)C(=O)N[C@@H](CO)C(=O)N[C@@H](CC(=O)O)C(=O)N[C@@H](CCC(N)=O)C(=O)N[C@H](C(=O)N[C@@H](CC(C)C)C(=O)N[C@@H](CCCNC(=N)N)C(=O)NCC(=O)N[C@@H](CO)C(=O)NCC(=O)N[C@@H](CO)C(=O)NCC(=O)N[C@@H](CSC1=CC(=O)N(CCCC(=O)NCCOCCOCCOCCOCCC(=O)NCCN(CCNC(=O)CCOCCOCCOCCOCCNC(=O)CCCN2C(=O)C=C(SC[C@H](NC(=O)CNC(=O)[C@H](CO)NC(=O)CNC(=O)[C@H](CO)NC(=O)CNC(=O)[C@H](CCCNC(=N)N)NC(=O)[C@H](CC(C)C)NC(=O)[C@@H](NC(=O)[C@H](CCC(N)=O)NC(=O)[C@H](CC(=O)O)NC(=O)[C@H](CO)NC(=O)[C@H](CO)NC(=O)[C@H](CCC(=O)O)NC(=O)[C@H](CC(C)C)NC(=O)[C@H](CC(C)C)NC(=O)[C@H](CCC(=O)O)NC(=O)[C@H](CCCCN)NC(=O)[C@H](C)NC(=O)[C@H](CC(=O)O)NC(=O)[C@H](CCC(=O)O)NC(=O)[C@H](CC(C)C)NC(=O)[C@H](CCCCN)NC(=O)[C@H](C)NC(=O)[C@@H](NC(=O)[C@H](C)NC(=O)[C@H](CC(N)=O)NC(=O)CNC(=O)[C@H](CC(C)C)NC(=O)[C@H](CC(N)=O)NC(=O)[C@@H](NC(=O)CNC(=O)[C@@H](NC(=O)[C@H](CC(=O)O)NC(=O)[C@H](CC(C)C)NC(=O)[C@H](CCCNC(=N)N)NC(=O)[C@H](CCC(=O)O)NC(=O)[C@H](CC(C)C)NC(=O)[C@H](CO)NC(=O)[C@@H](NC(=O)[C@@H]3CCCN3C(=O)[C@@H]3CCCN3C(C)=O)[C@@H](C)CC)C(C)C)[C@@H](C)O)[C@@H](C)CC)[C@@H](C)CC)C(N)=O)C2=O)CCOC2CCC3(C)C(=CCC4C3CCC3(C)C(C(C)CCCC(C)C)CCC43)C2)C1=O)C(N)=O)[C@@H](C)CC` (stereo partly drawn) [MV HRC4]: in series [1], the “presence in the brain / CNS localization” value is on record as “a small fraction of the administered peptides was present” and the “presence in the serum” value is listed as “a small fraction of the administered peptides was present”. Moreover, the level at time molar at 8 h in series [2] is ~400 nM.

Consider `CC[C@H](C)[C@H](NC(=O)[C@H](C)NC(=O)[C@H](CC(N)=O)NC(=O)CNC(=O)[C@H](CC(C)C)NC(=O)[C@H](CC(N)=O)NC(=O)[C@@H](NC(=O)CNC(=O)[C@@H](NC(=O)[C@H](CC(=O)O)NC(=O)[C@H](CC(C)C)NC(=O)[C@H](CCCNC(=N)N)NC(=O)[C@H](CCC(=O)O)NC(=O)[C@H](CC(C)C)NC(=O)[C@H](CO)NC(=O)[C@@H](NC(=O)[C@@H]1CCCN1C(=O)[C@@H]1CCCN1C(C)=O)[C@@H](C)CC)C(C)C)[C@@H](C)O)C(=O)N[C@@H](C)C(=O)N[C@@H](CCCCN)C(=O)N[C@@H](CC(C)C)C(=O)N[C@@H](CCC(=O)O)C(=O)N[C@@H](CC(=O)O)C(=O)N[C@@H](C)C(=O)N[C@@H](CCCCN)C(=O)N[C@@H](CCC(=O)O)C(=O)N[C@@H](CC(C)C)C(=O)N[C@@H](CC(C)C)C(=O)N[C@@H](CCC(=O)O)C(=O)N[C@@H](CO)C(=O)N[C@@H](CO)C(=O)N[C@@H](CC(=O)O)C(=O)N[C@@H](CCC(N)=O)C(=O)N[C@H](C(=O)N[C@@H](CC(C)C)C(=O)N[C@@H](CCCNC(=N)N)C(=O)NCC(=O)N[C@@H](CO)C(=O)NCC(=O)N[C@@H](CO)C(=O)NCC(=O)N[C@@H](CSC1=CC(=O)N(CCCC(=O)NCCOCCOCCOCCOCCC(=O)NCCN(CCNC(=O)CCOCCOCCOCCOCCNC(=O)CCCN2C(=O)C=C(SC[C@H](NC(=O)CNC(=O)[C@H](CO)NC(=O)CNC(=O)[C@H](CO)NC(=O)CNC(=O)[C@H](CCCNC(=N)N)NC(=O)[C@H](CC(C)C)NC(=O)[C@@H](NC(=O)[C@H](CCC(N)=O)NC(=O)[C@H](CC(=O)O)NC(=O)[C@H](CO)NC(=O)[C@H](CO)NC(=O)[C@H](CCC(=O)O)NC(=O)[C@H](CC(C)C)NC(=O)[C@H](CC(C)C)NC(=O)[C@H](CCC(=O)O)NC(=O)[C@H](CCCCN)NC(=O)[C@H](C)NC(=O)[C@H](CC(=O)O)NC(=O)[C@H](CCC(=O)O)NC(=O)[C@H](CC(C)C)NC(=O)[C@H](CCCCN)NC(=O)[C@H](C)NC(=O)[C@@H](NC(=O)[C@H](C)NC(=O)[C@H](CC(N)=O)NC(=O)CNC(=O)[C@H](CC(C)C)NC(=O)[C@H](CC(N)=O)NC(=O)[C@@H](NC(=O)CNC(=O)[C@@H](NC(=O)[C@H](CC(=O)O)NC(=O)[C@H](CC(C)C)NC(=O)[C@H](CCCNC(=N)N)NC(=O)[C@H](CCC(=O)O)NC(=O)[C@H](CC(C)C)NC(=O)[C@H](CO)NC(=O)[C@@H](NC(=O)[C@@H]3CCCN3C(=O)[C@@H]3CCCN3C(C)=O)[C@@H](C)CC)C(C)C)[C@@H](C)O)[C@@H](C)CC)[C@@H](C)CC)C(N)=O)C2=O)CCOc2c(C)c(C)c3c(c2C)CC[C@](C)(CCC[C@@H](C)CCC[C@@H](C)CCCC(C)C)O3)C1=O)C(N)=O)[C@@H](C)CC` [HRC4-tocopherol], for which, in series [1], the “presence in the brain / CNS localization” value is on record as “no CNS localization” and the “presence in the serum” value is given as “minimal presence in the serum”. The level at time molar at 8 h in series [2] is ~2000 nM.

The values are drawn from US10172961B2 (priority 2014, dated 2019).
